# Patent publication US8754073B2, “Substituted piperazino-dihydrothienopyrimidines” (Boehringer Ingelheim International GmbH, priority 2007, dated 2014)
# Molecular target: PDE4B (Homo sapiens, UniProt Q07343)
# Assay: Scintillation Proximity Assay (SPA) of PDE4B enzyme activity ([H3]-cAMP cleavage)
# Assay type: biochemical
# Settings: test substance 1 μM; one-hour incubation of [H3]-cAMP with PDE4B enzyme at 30° C.
# Outline: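 SPA read-out: [H3]-cAMP incubated with PDE4B in assay buffer for 1 h at 30 °C, with and without test compound at 1 μM. Reaction stopped by adding yttrium silicate beads that bind the [H3]-AMP product; after 45 min settling, scintillation counted. Value is % inhibition at 1 μM.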
# PDE4B, sequence (Q07343 whole entry, species assumed): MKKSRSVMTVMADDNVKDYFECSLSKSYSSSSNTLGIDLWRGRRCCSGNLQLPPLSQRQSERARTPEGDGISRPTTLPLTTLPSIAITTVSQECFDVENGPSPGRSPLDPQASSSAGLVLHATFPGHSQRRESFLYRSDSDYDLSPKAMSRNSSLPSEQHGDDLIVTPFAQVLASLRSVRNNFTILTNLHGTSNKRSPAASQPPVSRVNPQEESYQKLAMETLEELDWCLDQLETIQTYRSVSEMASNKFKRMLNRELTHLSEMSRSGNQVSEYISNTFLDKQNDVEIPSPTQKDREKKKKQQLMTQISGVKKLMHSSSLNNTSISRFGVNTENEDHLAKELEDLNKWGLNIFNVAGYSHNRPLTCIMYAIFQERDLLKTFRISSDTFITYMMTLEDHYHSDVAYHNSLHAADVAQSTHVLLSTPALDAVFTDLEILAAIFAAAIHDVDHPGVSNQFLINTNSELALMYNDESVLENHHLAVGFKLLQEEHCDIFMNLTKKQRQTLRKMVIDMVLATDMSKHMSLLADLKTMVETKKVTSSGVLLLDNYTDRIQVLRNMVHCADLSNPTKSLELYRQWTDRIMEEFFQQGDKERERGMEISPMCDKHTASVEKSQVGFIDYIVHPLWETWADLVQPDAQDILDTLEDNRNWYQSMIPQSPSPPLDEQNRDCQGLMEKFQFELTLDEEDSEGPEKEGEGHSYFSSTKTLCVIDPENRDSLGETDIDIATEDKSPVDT
row,SMILES,inhibition at 1 µM [%]
1,"O=S1(=O)CCc2nc(N3CCC(c4ccc(Cl)cc4)CC3)nc(NC3(CO)CC3)c21 [Example 333, (1-{2-[4-(4-chlorophenyl)-piperidin-1-yl]-5.5-dioxo-6,7-dihydro-5H-5λ^6-thieno[3,2-d]pyrimidin-4-ylamino}-cyclopropyl)-methanol]",56
2,"O=S1(=O)CCc2nc(N3CCC(c4ccc(Cl)cc4)CC3)nc(NC3CCOCC3)c21 [Example 334, {2-[4-(4-chlorophenyl)-piperidin-1-yl]-5.5-dioxo-6,7-dihydro-5H-5λ^6-thieno[3,2-d]pyrimidin-4-yl}-(tetrahydropyran-4-yl)-amine]",65
3,"CN1C[C@@H](Nc2nc(N3CCC(c4ccc(Cl)cc4)CC3)nc3c2S(=O)(=O)CC3)CCC1=O [Example 335, 5-{2-[4-(4-chlorophenyl)-piperidin-1-yl]-5.5-dioxo-6,7-dihydro-5H-5λ^6-thieno[3,2-d]pyrimidin-4-ylamino}-1-methylpiperidin-2-one]",85

# Same assay, conditions: test substance 1 μM; one-hour incubation with [H3]-cAMP at 30° C.
row,inhibition at 1 µM [%],SMILES
1,83,[O-][S+]1CCc2nc(N3CCC(c4cc(-c5cccs5)[nH]n4)CC3)nc(NC3CCOCC3)c21 (centres unmarked) [Example 284]
2,89,[O-][S+]1CCc2nc(N3CCC(O)(c4ccc(Cl)cc4)CC3)nc(NC3CCOCC3)c21 (centres unmarked) [Example 288]
3,81,[O-][S+]1CCc2nc(N3CCC(O)(c4ccc(Cl)cc4)CC3)nc(NC3(CO)CC3)c21 (centres unmarked) [Example 289]
4,86,N#CC1(c2ccc(F)cc2)CCN(c2nc3c(c(NC4CCOCC4)n2)[S+]([O-])CC3)CC1 (centres unmarked) [Example 293]
5,88,CN1C[C@@H](Nc2nc(N3CCC(C#N)(c4ccc(F)cc4)CC3)nc3c2[S+]([O-])CC3)CCC1=O (some centres unmarked) [Example 294]
6,93,N#CC1(c2ccc(F)cc2)CCN(c2nc3c(c(NC4(CO)CC4)n2)[S+]([O-])CC3)CC1 (centres unmarked) [Example 295]
7,73,O=C(c1ccc(F)cc1)C1(c2ccc(F)cc2)CCN(c2nc3c(c(NC4CCOCC4)n2)[S+]([O-])CC3)CC1 (centres unmarked) [Example 297]
8,92,[O-][S+]1CCc2nc(N3CCC(CO)(c4ccc(Cl)cc4)CC3)nc(NC3(CO)CC3)c21 (centres unmarked) [Example 301]
9,91,COCC1(c2ccc(Cl)cc2)CCN(c2nc3c(c(NC4CCOCC4)n2)[S+]([O-])CC3)CC1 (centres unmarked) [Example 302]
10,89,O=C(c1ccc(F)cc1)C1(c2ccc(F)cc2)CCN(c2nc3c(c(NC4(CO)CC4)n2)[S+]([O-])CC3)CC1 (centres unmarked) [Example 308]
11,92,[O-][S+]1CCc2nc(N3CCC(COCc4ccccc4)(c4ccc(Cl)cc4)CC3)nc(NC3CCOCC3)c21 (centres unmarked) [Example 310]
12,92,[O-][S+]1CCc2nc(N3CCC(c4nc(-c5ccccc5)no4)CC3)nc(NC3CCOCC3)c21 (centres unmarked) [Example 312]
13,89,COC1(c2ccc(Cl)cc2)CCN(c2nc3c(c(NC4CCOCC4)n2)[S+]([O-])CC3)CC1 (centres unmarked) [Example 313]
14,88,COC1(c2ccc(Cl)cc2)CCN(c2nc3c(c(NC4(CO)CC4)n2)[S+]([O-])CC3)CC1 (centres unmarked) [Example 314]
15,95,[O-][S+]1CCc2nc(N3CCC(c4nnc(-c5ccccc5)o4)CC3)nc(NC3CCOCC3)c21 (centres unmarked) [Example 317]
16,91,[O-][S+]1CCc2nc(N3CCC(OCc4ccccc4)(c4ccc(Cl)cc4)CC3)nc(NC3CCOCC3)c21 (centres unmarked) [Example 319]
17,93,N#Cc1ccc(OC2CCN(c3nc4c(c(NC5CCOCC5)n3)[S+]([O-])CC4)CC2)cc1 (centres unmarked) [Example 321]
18,91,N#Cc1ccc(OC2CCN(c3nc4c(c(NC5(CO)CC5)n3)[S+]([O-])CC4)CC2)cc1 (centres unmarked) [Example 322]
19,94,"COCC(=O)N(C)CC1(c2ccccc2)CCN(c2nc3c(c(NC4CCOCC4)n2)[S+]([O-])CC3)CC1 (centres unmarked) [Example 323, 2-methoxy-N-methyl-N-{1-[5-oxo-4-(tetrahydropyran-4-ylamino)-6,7-dihydro-5H-5λ^4-thieno[3,2-d]pyrimidin-2-yl]-4-phenylpiperidin-4-ylmethyl}-acetamide]"
20,87,CS(=O)(=O)NCC1(c2ccccc2)CCN(c2nc3c(c(NC4CCOCC4)n2)[S+]([O-])CC3)CC1 (centres unmarked) [Example 325]
21,95,[O-][S+]1CCc2nc(N3CCC(c4nc5c(o4)CCCC5)CC3)nc(NC3CCOCC3)c21 (centres unmarked) [Example 329]

# More lines, now with the values behind:
row,SMILES,inhibition at 1 µM [%]
1,"Cc1nc(C2CCN(c3nc4c(c(NC5(CO)CC5)n3)[S+]([O-])CC4)CC2)oc1-c1ccc(Cl)cc1 (centres unmarked) [Example 283, [1-(2-{4-[5-(4-chlorophenyl)-4-methyloxazol-2-yl]-piperidin-1-yl}-5-oxo-6,7-dihydro-5H-5λ^4-thieno[3,2-d]pyrimidin-4-ylamino)-cyclopropyl]-methanol]",89
2,[O-][S+]1CCc2nc(N3CCC(c4cc(-c5cccs5)[nH]n4)CC3)nc(NC3(CO)CC3)c21 (centres unmarked) [Example 285],90
3,CN1C[C@@H](Nc2nc(N3CCC(c4cc(-c5cccs5)[nH]n4)CC3)nc3c2[S+]([O-])CC3)CCC1=O (some centres unmarked) [Example 286],89
4,[O-][S+]1CCc2nc(N3CCC(c4cc(-c5cccs5)[nH]n4)CC3)nc(Nc3cccc(F)c3)c21 (centres unmarked) [Example 287],89
5,[O-][S+]1CCc2nc(N3CCC(O)(c4ccc(Cl)cc4)CC3)nc(Nc3cccc(F)c3)c21 (centres unmarked) [Example 290],86
6,[O-][S+]1CCc2nc(N3CCC(CO)(c4ccc(Cl)cc4)CC3)nc(Nc3cccc(F)c3)c21 (centres unmarked) [Example 291],89
7,CC(C)[C@H](CO)Nc1nc(N2CCC(c3cc(-c4cccs4)[nH]n3)CC2)nc2c1[S+]([O-])CC2 (some centres unmarked) [Example 292],83
8,CC(C)[C@H](CO)Nc1nc(N2CCC(O)(c3ccc(Cl)cc3)CC2)nc2c1[S+]([O-])CC2 (some centres unmarked) [Example 296],81
9,CC(C)[C@H](CO)Nc1nc(N2CCC(C(=O)c3ccc(F)cc3)(c3ccc(F)cc3)CC2)nc2c1[S+]([O-])CC2 (some centres unmarked) [Example 298],91
10,O=C(c1ccc(F)cc1)C1(c2ccc(F)cc2)CCN(c2nc3c(c(Nc4cccc(F)c4)n2)[S+]([O-])CC3)CC1 (centres unmarked) [Example 299],90
11,CC(C)[C@H](CO)Nc1nc(N2CCC(CO)(c3ccc(Cl)cc3)CC2)nc2c1[S+]([O-])CC2 (some centres unmarked) [Example 300],86
12,COCC1(c2ccc(Cl)cc2)CCN(c2nc3c(c(NC4(CO)CC4)n2)[S+]([O-])CC3)CC1 (centres unmarked) [Example 303],89
13,COCC1(c2ccc(Cl)cc2)CCN(c2nc3c(c(N[C@@H](CO)C(C)C)n2)[S+]([O-])CC3)CC1 (some centres unmarked) [Example 304],89
14,COCC1(c2ccc(Cl)cc2)CCN(c2nc3c(c(Nc4cccc(F)c4)n2)[S+]([O-])CC3)CC1 (centres unmarked) [Example 305],91
15,"[O-][S+]1CCc2nc(N3CCC(COCc4ccccc4)(c4ccc(Cl)cc4)CC3)nc(Nc3cccc(F)c3)c21 (centres unmarked) [Example 306, {2-[4-benzyloxymethyl-4-(4-chlorophenyl)-piperidin-1-yl]-5-oxo-6,7-dihydro-5H-5λ^4-thieno[3,2-d]pyrimidin-4-yl}-(3-fluorophenyl)-amine]",89
16,CC(C)[C@H](CO)Nc1nc(N2CCC(COCc3ccccc3)(c3ccc(Cl)cc3)CC2)nc2c1[S+]([O-])CC2 (some centres unmarked) [Example 307],89
17,[O-][S+]1CCc2nc(N3CCC(COCc4ccccc4)(c4ccc(Cl)cc4)CC3)nc(NC3(CO)CC3)c21 (centres unmarked) [Example 309],92
18,[O-][S+]1CCc2nc(N3CCC(c4nc(-c5ccccc5)no4)CC3)nc(NC3(CO)CC3)c21 (centres unmarked) [Example 311],91
19,COC1(c2ccc(Cl)cc2)CCN(c2nc3c(c(N[C@@H](CO)C(C)C)n2)[S+]([O-])CC3)CC1 (some centres unmarked) [Example 315],89
20,COC1(c2ccc(Cl)cc2)CCN(c2nc3c(c(Nc4cccc(F)c4)n2)[S+]([O-])CC3)CC1 (centres unmarked) [Example 316],92
21,[O-][S+]1CCc2nc(N3CCC(c4nnc(-c5ccccc5)o4)CC3)nc(NC3(CO)CC3)c21 (centres unmarked) [Example 318],91
22,[O-][S+]1CCc2nc(N3CCC(OCc4ccccc4)(c4ccc(Cl)cc4)CC3)nc(NC3(CO)CC3)c21 (centres unmarked) [Example 320],92
23,CS(=O)(=O)NCC1(c2ccccc2)CCN(c2nc3c(c(NC4(CO)CC4)n2)[S+]([O-])CC3)CC1 (centres unmarked) [Example 324],89
24,CC(C)[C@H](CO)Nc1nc(N2CCC(CNS(C)(=O)=O)(c3ccccc3)CC2)nc2c1[S+]([O-])CC2 (some centres unmarked) [Example 326],88
25,CS(=O)(=O)NCC1(c2ccccc2)CCN(c2nc3c(c(Nc4cccc(F)c4)n2)[S+]([O-])CC3)CC1 (centres unmarked) [Example 327],83
26,[O-][S+]1CCc2nc(N3CCC(c4nc5c(o4)CCCC5)CC3)nc(NC3(CO)CC3)c21 (centres unmarked) [Example 328],93
27,CN(CC1(c2ccccc2)CCN(c2nc3c(c(NC4(CO)CC4)n2)[S+]([O-])CC3)CC1)S(C)(=O)=O (centres unmarked) [Example 330],92
28,CC(C)[C@H](CO)Nc1nc(N2CCC(CN(C)S(C)(=O)=O)(c3ccccc3)CC2)nc2c1[S+]([O-])CC2 (some centres unmarked) [Example 331],85
29,CN(CC1(c2ccccc2)CCN(c2nc3c(c(Nc4cccc(F)c4)n2)[S+]([O-])CC3)CC1)S(C)(=O)=O (centres unmarked) [Example 332],93
